Legend:
[1] = test system: non-alcoholic steatohepatitis C57BL/6 mouse model induced by the methionine and choline deficient (MCD) diet; assay: Non-alcoholic steatohepatitis treatment model (MCD diet), 6 weeks repeated oral administration; format: in vivo, C57BL/6 mice; settings: for LDL level (blood biochemical test) / oil red O staining area level: p<0.01
Description: The MCD model, which is an animal model of steatohepatitis, was used. C57BL/6 mice were supplied with a MCD (methionine-choline deficient) diet for 5 days, followed by a normal diet for 2 days. In this way, for 10 weeks, the MCD diet and normal diet were alternately supplied. Animals were identified using tail marks during the acclimatization period (blue), dosing and observation period (red). Individual identification cards, distinguished by color, were attached to the breeding box, and an animal room usage record was attached to the entrance of the breeding room.
During the acclimatization period, blood biochemical tests and body weight measurements were performed. Mice were randomly distributed so that the average of each group was distributed as uniformly as possible according to the ranked ALT and body weight levels. [10 animals in the normal feed group (G1), 40 animals in the MCD diet group (G2-G5)]
The improvement effect that appeared when the test compound was repeatedly administered for 6 weeks to the non-alcoholic steatohepatitis C57BL/6 mouse model induced over 10 weeks with the MCD diet was evaluated. Test compound was administered once a day for 6 weeks. As a positive control, obeticholic acid (hereinafter referred to as OCA), which is currently undergoing a phase 3 clinical trial with non-alcoholic steatohepatitis as an indication, was used.
In the case of a control compound (obeticholic acid, 10 mg/kg/day), an appropriate amount was weighed and then diluted in sterile distilled water and administered. In the case of the test compound, after weighing the appropriate amount, it was diluted with 0.5 wt % methyl cellulose aqueous solution to which 1 wt % Tween 80 was added. During oral administration, the weight of the mouse was measured, and the animals were fixed using the cervical skin fixation method, and each test compound was administered using a sonde for oral administration.
It was measured at the start of administration, and once a week and on the day of autopsy after the start of administration.
It was measured right before the start of administration, and once a week after the start of administration of the test compound. As for the measurement method, the remaining amount of feed was measured per unit of breeding box next day after quantitative feeding, the difference was calculated, and the average intake per mouse was calculated.
The following items were tested using a blood biochemical analyzer (7180 Hitachi, Japan) with blood collected and separated at right before and the 6th week (the day of autopsy) after administration of the test compound.
Six weeks after administration of the test compound: ALT (alanine transaminase), AST (aspartate transaminase), TG (triglyceride), TCHO (total cholesterol), HDL (high-density lipoprotein), LDL (low-density lipoprotein), GGT (Gamma-glutamyltransferase), LDH (Lactate dehydrogenase)
On the day of autopsy, pimonidazole was diluted in saline at a concentration of 30 mg/ml, and then administered intravenously at a dose of 60 mg/kg. Animals were euthanized 90 minutes after administration. At each autopsy, the animals were inhaled with ether, and when anesthesia was confirmed, blood was collected from the posterior vena cava using a syringe. Thereafter, the abdominal aorta and posterior vena cava were cut, bleeding, and killed. Blood was injected into a vacutainer tube containing a clot activator, allowed to stand at room temperature for about 15 minutes to coagulate, and then centrifuged at 3,000 rpm for 10 minutes to separate the serum. Serum was stored in a deep freezer set at −70° C. or lower before analysis, and was used for blood biochemical tests.
At autopsy, the liver was excised and weighed, the right lobe of the liver was fixed in 10% neutral buffered formalin solution, and the left lobe was divided into half and rapidly frozen using liquid nitrogen. The quick-frozen specimens were stored in a cryogenic freezer set at −70° C. or lower until ELISA analysis. […]

[2] = single administration and combined administration with metformin; cited from earlier work
[3] = Tissue concentration after oral administration to the mouse; format: in vivo; settings: 2 hours after oral administration
[4] = test system: non-alcoholic steatohepatitis prevention model, MCD feed, mice (C57BL/6); assay: Non-alcoholic steatohepatitis prevention model (MCD feed with simultaneous administration for 12 weeks); format: in vivo; settings: 12 weeks with MCD feed, vs vehicle control group (G2)
Method: The efficacy of the test compound for preventing non-alcoholic steatohepatitis was evaluated. Using 7-week-old mice (C57BL/6), the normal group (G1) was supplied with general feed, and the vehicle control group (G2), positive control group (G3), and test groups (G4, G5) were supplied with the MCD feed for 12 weeks. Simultaneously with the MCD diet, test compounds and controls were administered orally once a day. Mice were divided into five groups, and a total of 75 mice, 15 mice per each group, were used for the experiment.
In order to evaluate the prophylactic efficacy, the test compound was administered for 12 weeks at the same time as induction with the MCD diet, and the efficacy of the test compound for the prevention of steatohepatitis was evaluated.
Each appropriate amount of the control compound (Obeticholic acid, 10 mg/kg/day) and the test compound was weighed, and then diluted in 0.5 wt % methyl cellulose aqueous solution to which 1 wt % Tween 80 was added. During oral administration, the weight of the mouse was measured, and the animals were fixed using the cervical skin fixation method, and each test substance was administered using a sonde for oral administration. […]

[5] = clinical trials; cited from earlier work
[6] = 10 mg/kg/day (G4), vs vehicle control group (G2)
[7] = 30 mg/kg/day (G5), vs vehicle control group (G2)

C[C@@H]1CN(c2ccc(S(C)(=O)=O)cc2F)CCN1c1nccc(C(=O)N[C@H]2C3CC4CC2C[C@](O)(C4)C3)n1 [Chemical Formula 1, 2-((R)-4-(2-fluoro-4-(methylsulfonyl)phenyl)-2-methylpiperazin-1-yl)-N-((1R,2s,3S,5S,7S)-5-hydroxyadamantan-2-yl)pyrimidine-4-carboxamide]
ALT level (blood biochemical test) ([1]; 10 mg/kg/day (G3, G4) oral once a day, vs vehicle control group (G2), p<0.05): significantly lower | Hydroxyproline expression area level ([1]; 10 mg/kg/day (G3, G4), vs normal control group (G1), p<0.001 or p<0.05): significantly higher | Hydroxyproline expression area level ([1]; 10 mg/kg/day (G3, G4), vs vehicle control group (G2), p<0.001 or p<0.01): significantly lower | TCHO level in liver tissue (ELISA) [1, 6]: significantly lower | TG level in liver tissue (ELISA) [1, 6]: significantly lower | LDL level (blood biochemical test) ([1]; 10 mg/kg/day (G4), vs vehicle control group (G2) and positive control group (G3)): significantly lower | oil red O staining area level ([1]; 10 mg/kg/day (G4), vs vehicle control group): significantly lower | ALT level (blood biochemical test) ([1]; 30 mg/kg/day (G5) oral once a day, vs vehicle control group (G2), p<0.001 or p<0.05): significantly lower | TCHO level in liver tissue (ELISA) [1, 7]: significantly lower | TG level in liver tissue (ELISA) [1, 7]: significantly lower | LDL level (blood biochemical test) ([1]; 30 mg/kg/day (G5), vs vehicle control group (G2) and positive control group (G3)): significantly lower | relative liver weight level ([1]; 30 mg/kg/day (G5), vs vehicle control group (G2) and positive control group (G3), p<0.01 or p<0.05): significantly lower | Hydroxyproline expression area level ([1]; 30 mg/kg/day (G5), vs vehicle control group (G2), p<0.001 or p<0.01): significantly lower | AST level (blood biochemical test) ([1]; 30 mg/kg/day (G5), vs vehicle control group (G2), p<0.001 or p<0.05): significantly lower | liver weight level (absolute) ([1]; 30 mg/kg/day (G5), vs vehicle control group (G2), p<0.05): significantly lower | oil red O staining area level ([1]; 30 mg/kg/day (G5), vs vehicle control group): significantly lower | microvesicular steatosis level (histopathology) ([1]; 30 mg/kg/day (G5), vs vehicle control group, p<0.05): significantly lower | effect of alleviating non-alcoholic steatohepatitis ([1]; 30 mg/kg/day, compared to positive control compound): superior | blood biochemistry, liver relative weight, TG and TCHO content in liver tissue, and microvesicular steatosis level ([1]; high dose administration group, vs positive control group): lower than those of the positive control group | LDH (FIG. 2) ([1]; high-dose administration group, compared to normal group): concentration similar to that of the normal group | levels of inflammation (histopathology) ([1]; test compound administration group, vs vehicle control group): lower levels of inflammation | LDH (FIG. 2) ([1]; test compound groups, compared to the positive control group): tends to decrease LDH | efficacy as therapeutic agent for type 2 diabetes [2]: did not show sufficient efficacy | concentration of the liver tissue compared with plasma concentration [3]: higher than the plasma concentration | triglycerides in liver tissue ([4]; 10 mg/kg/day (G3, G4) oral once a day): statistically significant decrease | triglycerides in liver tissue ([4]; 30 mg/kg/day (G5) oral once a day): statistically significant decrease

CC[C@H]1[C@@H](O)[C@@H]2[C@H](CC[C@]3(C)[C@@H]([C@H](C)CCC(=O)O)CC[C@@H]23)[C@@]2(C)CC[C@@H](O)C[C@@H]12 [OCA, obeticholic acid]
subjects showing stomach pain and fatigue [5]: more than 10% | subjects with side effects like irregular heartbeat, dry skin, constipation, joint pain, peripheral edema, sore throat, thyroid hormone irregularity, rash [5]: about 10%
